This passage reports IC50 results from ChEMBL document CHEMBL1126059 (J Med Chem, 1992).

Where a SMILES comes first, the peptide text is derived from it. [ ]: non-standard residue; d: D form. The star is where a group is joined. Boc = CC(C)(C)OC(=O)*; OBn = c1ccc(CO*)cc1; For = O=C* Bounds are passed on as bounds.

In one test the target is T1, Substance-P receptor (Cavia porcellus, UniProt P30547). The test can be described thus: Displacement of specific binding of [3H]SP to tachykinin receptor 1 from the isolated guinea pig tracheal strips.
T1 sequence (P30547 whole entry): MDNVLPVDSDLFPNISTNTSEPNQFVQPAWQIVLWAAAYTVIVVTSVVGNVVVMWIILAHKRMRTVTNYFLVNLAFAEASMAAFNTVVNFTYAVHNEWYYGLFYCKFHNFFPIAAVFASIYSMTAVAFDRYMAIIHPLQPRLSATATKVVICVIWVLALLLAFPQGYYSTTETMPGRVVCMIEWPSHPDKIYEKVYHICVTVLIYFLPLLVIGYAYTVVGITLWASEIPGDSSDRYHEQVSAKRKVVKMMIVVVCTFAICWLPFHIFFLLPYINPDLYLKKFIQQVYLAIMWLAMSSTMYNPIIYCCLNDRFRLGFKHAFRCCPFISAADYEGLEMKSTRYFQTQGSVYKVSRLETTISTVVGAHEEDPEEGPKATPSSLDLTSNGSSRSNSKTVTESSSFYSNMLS
`CC(C)(C)OC(=O)N[C@@H](CCC(N)=O)C(=O)N[C@H](Cc1c[nH]c2ccccc12)C(=O)N[C@@H](Cc1ccccc1)C(N)=O` registered an IC50 of 38700 nM.

For the molecule `CC(C)(C)OC(=O)N[C@@H](CCC(N)=O)C(=O)N[C@H](Cc1c[nH]c2ccccc12)C(=O)N[C@@H](Cc1ccccc1)C(=O)OCc1ccccc1`, the IC50 turned out to be 550 nM.

On to `NC(=O)CC[C@H](NC(=O)OCc1ccccc1)C(=O)N[C@@H](CCC(N)=O)C(=O)N[C@H](Cc1c[nH]c2ccccc12)C(=O)O`, for which the IC50 was over 100000 nM. In the case of `CC(C)(C)OC(=O)N[C@H](Cc1c[nH]c2ccccc12)C(=O)N[C@H](Cc1c[nH]c2ccccc12)C(=O)N[C@@H](Cc1ccccc1)C(=O)OCc1ccccc1`, the half-inhibitory concentration (IC50) was over 100000 nM. `CN(C(=O)[C@@H](Cc1cn(C=O)c2ccccc12)NC(=O)[C@H](CCC(N)=O)NC(=O)OC(C)(C)C)[C@@H](Cc1ccccc1)C(=O)OCc1ccccc1` displayed an IC50 of 240 nM. On to `O=C(N[C@@H](Cc1ccccc1)C(=O)N[C@H](Cc1c[nH]c2ccccc12)C(=O)N[C@H](Cc1c[nH]c2ccccc12)C(=O)OCc1ccccc1)OCc1ccccc1`, for which the 50% inhibitory concentration (IC50) is 100000 nM.

`NC(=O)CC[C@H](NC(=O)[C@H](CCC(N)=O)NC(=O)[C@H]1CCCN1)C(=O)O` had an IC50 of over 100000 nM. Turning to `CC(C)(C)OC(=O)NCC(=O)N[C@H](Cc1cn(C=O)c2ccccc12)C(=O)N[C@@H](Cc1ccccc1)C(=O)OCc1ccccc1`, the IC50 came to 420 nM.

Molecule `CC(C)(C)OC(=O)N[C@@H](CCC(N)=O)C(=O)N[C@H](Cc1cn(C=O)c2ccccc12)C(=O)N[C@@H](Cc1ccccc1)C(=O)O` gave an IC50 of over 100000 nM. `O=C1CC[C@@H](C(=O)N[C@H](Cc2c[nH]c3ccccc23)C(=O)N[C@@H](Cc2ccccc2)C(=O)O)N1` came in with an IC50 of over 100000 nM. Molecule `CC(C)(C)OC(=O)N[C@@H](CCC(N)=O)C(=O)N[C@H](Cc1ccccc1)C(=O)N[C@@H](Cc1ccccc1)C(=O)OCc1ccccc1` gave a 50% inhibitory concentration (IC50) of 380 nM. In turn, `O=C(N[C@H](Cc1c[nH]c2ccccc12)C(=O)N[C@@H](Cc1ccccc1)C(=O)N[C@H](Cc1c[nH]c2ccccc12)C(=O)O)OCc1ccccc1` yielded a 50% inhibitory concentration (IC50) of 23800 nM.

In turn, `CC(C)(C)OC(=O)N[C@@H](CCC(N)=O)C(=O)N[C@H](Cc1cn(C=O)c2ccccc12)C(=O)N[C@@H](Cc1ccccc1)C(=O)OCCc1ccccc1` had an IC50 of 500 nM. Molecule `NC(=O)CC[C@H](NC(=O)[C@@H]1CCC(=O)N1)C(=O)N[C@H](Cc1c[nH]c2ccccc12)C(=O)O` showed a half-inhibitory concentration (IC50) of over 100000 nM. As for `CSCC[C@@H](NC(=O)[C@H](CCC(N)=O)NC(=O)OC(C)(C)C)C(=O)N[C@@H](Cc1ccccc1)C(=O)OCc1ccccc1`, the IC50 is 790 nM. For `CC(C)(C)OC(=O)N[C@@H](CCC(N)=O)C(=O)N[C@H](Cc1cn(C=O)c2ccccc12)C(=O)N[C@H](Cc1ccccc1)C(=O)OCc1ccccc1`, the IC50 was 770 nM. On to `NC(=O)[C@@H](Cc1c[nH]c2ccccc12)NC(=O)[C@H](Cc1ccccc1)NC(=O)[C@@H](Cc1c[nH]c2ccccc12)NC(=O)OCc1ccccc1`, for which the IC50 is over 100000 nM. Still for that read-out and setting: for `CC(C)(C)OC(=O)N1CCC[C@@H]1C(=O)N[C@@H](CCC(N)=O)C(=O)N[C@@H](CCC(N)=O)C(N)=O` the value was over 100000 nM; for `NC(=O)CC[C@H](NC(=O)[C@H](CCC(N)=O)NC(=O)[C@H]1CCCN1)C(=O)N[C@H](Cc1c[nH]c2ccccc12)C(=O)N[C@@H](Cc1ccccc1)C(=O)N[C@H](Cc1c[nH]c2ccccc12)C(=O)N[C@H](Cc1c[nH]c2ccccc12)C(=O)N[C@@H](Cc1ccccc1)C(N)=O`, 600 nM; for `CC(C)(C)OC(=O)N[C@@H](CCC(N)=O)C(=O)N[C@H](Cc1cn(C=O)c2ccccc12)C(=O)N1C(C(=O)c2ccccc2)CC[C@H]1C(=O)OCc1ccccc1` (stereo not given in full), 450 nM. The same measure, in the same setting: for `CC(C)(C)OC(=O)N[C@@H](CCC(N)=O)C(=O)N[C@H](Cc1cn(C=O)c2ccccc12)C(=O)N[C@@H](Cc1ccccc1)C(=O)OCc1ccc(Cl)cc1` the value was 1000 nM; for `NC(=O)CC[C@H](N)C(=O)N[C@H](Cc1cn(C=O)c2ccccc12)C(=O)N[C@@H](Cc1ccccc1)C(=O)OCc1ccccc1`, 210 nM.

Molecule `CC(C)(C)OC(=O)N[C@@H](Cc1ccc(O)cc1)C(=O)N[C@H](Cc1cn(C=O)c2ccccc12)C(=O)N[C@@H](Cc1ccccc1)C(=O)OCc1ccccc1` registered an IC50 of 260 nM. Molecule `CC(C)(C)OC(=O)N[C@@H](CCC(N)=O)C(=O)N[C@H](Cc1cn(C=O)c2ccccc12)C(=O)N1Cc2ccccc2CC1C(=O)OCc1ccccc1` (stereo not given in full) gave a 50% inhibitory concentration (IC50) of 140 nM.

The molecule `CC(C)C[C@@H](NC(=O)[C@H](CCC(N)=O)NC(=O)OC(C)(C)C)C(=O)N[C@@H](Cc1ccccc1)C(=O)OCc1ccccc1` displayed a half-inhibitory concentration (IC50) of 1000 nM.

For the molecule `CC(C)(C)OC(=O)N[C@@H](CCC(N)=O)C(=O)N[C@H](Cc1cn(C=O)c2ccccc12)C(=O)N[C@@H](Cc1ccccc1)C(=O)OCc1ccccc1`, the concentration for half-maximal inhibition (IC50) came to 90 nM.

`O=C(N[C@H](Cc1c[nH]c2ccccc12)C(=O)N[C@@H](Cc1ccccc1)C(=O)N[C@H](Cc1c[nH]c2ccccc12)C(=O)OCc1ccccc1)OCc1ccccc1`: the half-inhibitory concentration (IC50) is 10000 nM. The molecule `CC(C)(C)OC(=O)N[C@@H](CCC(N)=O)C(=O)N[C@@H](Cc1cn(C=O)c2ccccc12)C(=O)N[C@@H](Cc1ccccc1)C(=O)OCc1ccccc1` came in with an IC50 of 360 nM. For `O=C(N[C@@H](Cc1ccccc1)C(=O)N[C@H](Cc1c[nH]c2ccccc12)C(=O)N[C@H](Cc1c[nH]c2ccccc12)C(=O)O)OCc1ccccc1`, the IC50 was over 100000 nM. `CC(C)(C)OC(=O)N[C@@H](CCC(N)=O)C(=O)N[C@H](Cc1cn(C=O)c2ccccc12)C(=O)N[C@@H](Cc1ccccc1)C(=O)OCC1CCCCC1` displayed an IC50 of 400 nM. The same measure, in the same setting: for `CC(C)(C)OC(=O)N[C@@H](CCC(N)=O)C(=O)N[C@@H](Cc1ccccc1)C(=O)N[C@@H](Cc1ccccc1)C(=O)OCc1ccccc1` the value was 1000 nM; for `CC(C)(C)OC(=O)N[C@@H](CCC(N)=O)C(=O)N[C@H](Cc1cn(C=O)c2ccccc12)C(=O)N[C@@H](Cc1ccc(O)cc1)C(=O)OCc1ccccc1`, 390 nM. In the case of `NC(=O)CC[C@H](NC(=O)[C@H]1CCCN1C(=O)OCc1ccccc1)C(=O)N[C@@H](CCC(N)=O)C(=O)OCc1ccccc1`, the IC50 amounted to 10000 nM. On to `CC(C)(C)OC(=O)N[C@@H](CCC(N)=O)C(=O)N[C@H](Cc1c[nH]c2ccccc12)C(=O)N[C@@H](Cc1ccccc1)C(=O)O`, for which the IC50 is over 100000 nM. With `CC(C)(C)OC(=O)N1CCC[C@@H]1C(=O)N[C@@H](CCC(N)=O)C(=O)N[C@@H](CCC(N)=O)C(=O)OCc1ccccc1`, the IC50 amounted to 100000 nM. The molecule `CC(C)(C)OC(=O)N[C@@H](CO)C(=O)N[C@H](Cc1cn(C=O)c2ccccc12)C(=O)N[C@@H](Cc1ccccc1)C(=O)OCc1ccccc1` (Boc-Ser-[dW](For)-Phe-OBn) yielded an IC50 of 110 nM. `C[C@@H](O)[C@H](NC(=O)OC(C)(C)C)C(=O)N[C@H](Cc1cn(C=O)c2ccccc12)C(=O)N[C@@H](Cc1ccccc1)C(=O)OCc1ccccc1` (Boc-Thr-[dW](For)-Phe-OBn) showed a concentration for half-maximal inhibition (IC50) of 110 nM.

The target of another test is T1, Substance-P receptor. The test can be described thus: In vitro inhibitory concentration that gave 50% displacement of specific binding of [3H]SP to Tachykinin receptor 1 from the isolated guinea pig tracheal strips; No inhibition at 10E-4 M.
Turning to `CC(C)(C)OC(=O)N[C@@H](CCC(N)=O)C(=O)N[C@H](Cc1cn(C=O)c2ccccc12)C(=O)NCC(=O)OCc1ccccc1`, the 50% inhibitory concentration (IC50) entry was “Not Active”.

With `CC(C)(C)OC(=O)N[C@@H](CCC(N)=O)C(=O)N[C@H](Cc1cn(C=O)c2ccccc12)C(=O)N1CCC[C@H]1C(=O)OCc1ccccc1`, the IC50 result is listed as “Not Active”. Regarding `CC(C)[C@H](NC(=O)[C@@H](Cc1cn(C=O)c2ccccc12)NC(=O)[C@H](CCC(N)=O)NC(=O)OC(C)(C)C)C(=O)OCc1ccccc1`, the concentration for half-maximal inhibition (IC50) result is given as “Not Active”.
